# Results: article PMC6032016, “Synthesis, biological evaluation, and molecular modelling studies of potent human neutrophil elastase (HNE) inhibitors” (Journal of Enzyme Inhibition and Medicinal Chemistry, 2018)
# Legend:
# [1] = Analysis of compound stability: spontaneous hydrolysis in aqueous buffer; assay type: physicochemical; conditions: 25 °C, 0.05 M phosphate buffer, pH 7.3; read-out: t1/2 for spontaneous hydrolysis (converted)
# Procedure: Spontaneous hydrolysis of selected derivatives was evaluated at 25 °C in 0.05 M phosphate buffer, pH 7.3. Kinetics of hydrolysis were monitored by measuring changes in the absorbance spectra over time using a SpectraMax Plus microplate spectrophotometer (Molecular Devices, Sunnyvale, CA). Absorbance (At) at the characteristic absorption maxima of each compound was measured at the indicated times until no further absorbance decreases occurred (A∞)[52]. Using these measurements, we created semilogarithmic plots of log(At–A∞) versus time, and k′ values were determined from the slopes of these plots. Half-conversion times were calculated using t1/2 = 0.693/k′, as described previously[36]^,[37].
# HNE [2] = target: T1, HNE (Homo sapiens, UniProt P08246); experiment: Kinetics of HNE inhibition (double-reciprocal Lineweaver–Burk plots); assay type: biochemical; conditions: Lineweaver–Burk plot of fluorogenic substrate hydrolysis
# T1 construct: purchased Calbiochem
# T1 sequence (P08246 30-267): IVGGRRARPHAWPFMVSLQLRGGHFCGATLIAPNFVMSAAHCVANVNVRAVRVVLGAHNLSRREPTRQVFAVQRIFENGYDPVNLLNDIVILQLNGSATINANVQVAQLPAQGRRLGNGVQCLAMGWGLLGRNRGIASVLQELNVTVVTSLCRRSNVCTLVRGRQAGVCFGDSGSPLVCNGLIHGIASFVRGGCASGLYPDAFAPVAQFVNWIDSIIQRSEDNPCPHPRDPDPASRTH
# Source text: To better understand the mechanism of action of these isoxazolone HNE inhibitors, we performed kinetic experiments.
# Figure 7. Kinetics of HNE inhibition by compounds 7d and 8d. Representative double reciprocal Lineweaver–Burk plots are shown from three independent experiments.
# [3] = target: T2, HNE (human neutrophil elastase) (Homo sapiens, UniProt P08246); experiment: HNE inhibition assay (fluorogenic substrate cleavage); assay type: biochemical; conditions: mean ± SD of three independent experiments; NA: no inhibitory activity at the highest concentration tested (50 µM)
# T2 construct: purchased Calbiochem
# T2 sequence (P08246 30-267): T1 sequence (P08246 30-267)
# Procedure: Compounds were dissolved in 100% DMSO at 5 mM stock concentrations. […] The HNE inhibition assay was performed in black flat-bottom 96-well microtiter plates. Briefly, a buffer solution containing 200 mM Tris–HCl, pH 7.5, 0.01% bovine serum albumin, and 0.05% Tween-20 and 20 mU/mL of HNE (Calbiochem) was added to wells containing different concentrations of each compound. The reaction was initiated by addition of 25 µM elastase substrate (N-methylsuccinyl-Ala-Ala-Pro-Val-7-amino-4-methylcoumarin, Calbiochem) in a final reaction volume of 100 µl/well. Kinetic measurements were obtained every 30 s for 10 min at 25 °C using a Fluoroskan Ascent FL fluorescence microplate reader (Thermo Electron, MA) with excitation and emission wavelengths set at 355 and 460 nm, respectively. For all compounds tested, the concentration of inhibitor that caused 50% inhibition of the enzymatic reaction (IC50) was calculated by plotting % inhibition versus logarithm of inhibitor concentration (at least six points). The data are presented as the mean values of at least three independent experiments with relative standard deviations of <15%.
# HNE [4] = target: T1, HNE; experiment: Reversibility of HNE inhibition over extended periods of time; assay type: biochemical; conditions: 8 µM compound
# Procedure: The inhibition was maximal for up to 60 min with compound 7e and >120 min for the other tested compounds (4a, 4b, and 7a). However, inhibition by the compounds was eventually reversed, and full recovery of HNE activity was observed by 4 h after treatment with 8 µM of the compound (e.g. see Figure 6).
# Figure 6. […] HNE was incubated with the indicated compounds (8 µM), and kinetic curves monitoring substrate cleavage catalysed by HNE over time are shown. Representative curves are from two independent experiments.
smiles,measurement,setting,value
"CC(=O)Nc1ccc(-c2c(C)n(C(=O)c3cccc(C)c3)oc2=O)cc1 [Compound 7d, N-(4-(3-methyl-2-(3-methylbenzoyl)-5-oxo-2,5-dihydroisoxazol-4-yl)phenyl)acetamide]",half-life,[1],3.9 h
same,melting point,,159 to 160 °C
same,mechanism of HNE inhibition,HNE [2],competitive
same,IC50,[3],50 ± 20 nM
same,time after which HNE inhibition was reversed,HNE [4],~30 min
